The target in one assay is T1, human FAAH (Homo sapiens, UniProt O00519).
T1 construct: made in house; host or cells: E. coli
T1 sequence (O00519 1-579): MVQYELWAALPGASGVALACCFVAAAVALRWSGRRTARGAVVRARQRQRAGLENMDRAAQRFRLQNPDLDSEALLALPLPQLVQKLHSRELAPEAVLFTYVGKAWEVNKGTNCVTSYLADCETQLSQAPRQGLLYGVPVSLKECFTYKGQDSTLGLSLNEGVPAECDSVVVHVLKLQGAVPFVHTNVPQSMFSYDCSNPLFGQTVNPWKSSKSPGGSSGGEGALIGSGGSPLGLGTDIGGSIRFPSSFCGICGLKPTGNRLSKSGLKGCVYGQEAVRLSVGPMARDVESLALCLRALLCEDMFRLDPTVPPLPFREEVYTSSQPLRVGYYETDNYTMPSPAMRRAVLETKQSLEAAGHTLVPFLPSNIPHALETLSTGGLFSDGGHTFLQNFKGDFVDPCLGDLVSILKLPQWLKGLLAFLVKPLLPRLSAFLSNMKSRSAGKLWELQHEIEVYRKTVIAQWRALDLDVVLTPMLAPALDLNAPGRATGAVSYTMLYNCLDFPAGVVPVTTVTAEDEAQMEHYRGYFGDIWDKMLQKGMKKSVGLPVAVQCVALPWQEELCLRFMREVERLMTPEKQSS
Nature of the assay: FAAH assay, human FAAH enzyme inactivation (kinact/Ki). The class given is biochemical. The following applies: pH 7.4, in vitro, oleamide 50 μM, 30° C., read-out: hFAAH kinact/Ki. How it is done:
(§1) The FAAH assay was carried out in 384-well clear polystyrene plates (Evergreen Scientific) in a total volume of 50 μl per well in a manner similar to that described by Mileni et al., Proc. Nat. Acad. Sci. 2008, 105, 12820-12824. All percents are by volume. Serial dilutions of compound were initially prepared in 100% DMSO, and then diluted two-fold into HPLC-grade H2O to give 50% DMSO. To each well, was placed the reaction mixture (40 μl) containing 1-4 nM FAAH, 50 mM NaPi, pH 7.4, 3 mM α-ketoglutarate, 0.15 mM NADH, 7.5 U/ml glutamate dehydrogenase, 2 mM ADP, 1 mM EDTA, and 0.1% Triton X-100 (The concentration shown for each component is the final concentration in the assay). To this mixture, was added 5 μl of a compound of Examples 1 to 101 at various concentrations in 50% DMSO (or 5 μl 50% DMSO for controls). This was immediately followed by the addition of 5 μl oleamide (500 μM) dissolved in 75% EtOH/25% DMSO and the reaction mixture was mixed for 1.5 min. The final concentrations of DMSO and EtOH in the assay were each 7.5%. The reactions were incubated at 30° C. and the absorbance at 340 nm was collected over a period of 90 min with readings taken in 30-second intervals using SpectraMax Plus^384 Microplate Spectrophotometer (Molecular Devices, Sunnyvale, Calif.). The human FAAH and rat FAAH used in the assay was prepared as described in the patent application WO 2006/067613 using wild-type E. coli cells transformed in St. Louis, Mo., U.S.A. The purity of the enzyme was greater than 98% based on an analysis by SDS-polyacrylamide gel electrophoresis followed by Coomassie Blue staining.
(§2) Reaction progress curves were corrected for the non-enzymatic oxidation of NADH by subtraction of absorbancies at each time point obtained from control reactions containing no FAAH enzyme. The loss of enzyme activity as a function of time is well-described by the following mathematical equation (1) for a mono-exponential decay: […]
(§3) where At represents the absorbance at time t, A0 represents the absorbance at time zero, and C represents a constant. Observed rates of enzyme inactivation (kobs) were determined from the non-linear reaction progress curves by fitting the corrected absorbancies to an equation for a mono-exponential decay using the third-party Microsoft Excel plug-in, XLfit (IDBS Limited). Secondary plots of kobs vs. inhibitor concentration were prepared from kobs values obtained from progress curves. Second-order rates for enzyme inactivation, expressed as kinact/Ki (M^−1 s^−1), were calculated from the slopes from linear regression analysis of the secondary plot of kobs vs. inhibitor concentration as defined in following equation (2), where [I]<<Ki:
(§4) The concentration of substrate in the assay was equal to the Km for oleamide of 50 μM. Therefore, reported kinact/Ki values are obtained by multiplying resulting slopes by a factor of two (i.e. slope=kinact/(Ki*2)).
(§5) Table 1, below, lists human FAAH (hFAAH) and rat FAAH (rFAAH) enzyme inhibition values for Examples 1-101 as a ratio of kinact/Ki (M^−1 s^−1).

For a further assay, the target named is T2, rat FAAH (Rattus norvegicus, UniProt P97612).
T2 construct: made in house; host or cells: E. coli
T2 sequence (P97612 1-579): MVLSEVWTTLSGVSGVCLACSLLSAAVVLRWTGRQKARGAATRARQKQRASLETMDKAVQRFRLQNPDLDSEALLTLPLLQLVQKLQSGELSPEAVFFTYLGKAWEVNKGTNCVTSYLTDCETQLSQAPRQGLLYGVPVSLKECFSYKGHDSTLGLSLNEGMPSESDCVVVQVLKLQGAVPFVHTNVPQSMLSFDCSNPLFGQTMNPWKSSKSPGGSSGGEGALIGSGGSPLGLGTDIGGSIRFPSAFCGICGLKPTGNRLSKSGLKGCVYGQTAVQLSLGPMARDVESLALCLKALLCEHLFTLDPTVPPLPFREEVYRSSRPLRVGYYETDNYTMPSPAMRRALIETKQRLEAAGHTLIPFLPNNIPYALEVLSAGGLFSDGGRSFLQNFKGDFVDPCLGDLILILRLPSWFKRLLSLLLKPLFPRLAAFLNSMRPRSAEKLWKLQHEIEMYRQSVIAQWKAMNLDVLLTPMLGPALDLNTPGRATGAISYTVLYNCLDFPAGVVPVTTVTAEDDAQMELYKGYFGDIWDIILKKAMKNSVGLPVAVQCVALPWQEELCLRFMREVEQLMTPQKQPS
Nature of the assay: FAAH assay, rat FAAH enzyme inactivation (kinact/Ki). It is filed as biochemical. Conditions: pH 7.4, in vitro, oleamide 50 μM, 30° C., read-out: rFAAH kinact/Ki. Here is the method:
as §1, §2, §3, §4, §5

This note sets out measurements from patent US20110230493A1, “1-OXA-8-Azaspiro [4,5] Decabe-8-Carboxamide Compounds as FAAH Inhibitors” (Pfizer Inc., priority 2008, published 2011).

As for `O=C(Nc1cccnn1)N1CCC2(CC1)CC(c1cccc(Oc3ccc(Cl)cn3)c1)CO2` (racemic) [Example 4, (3RS)-3-{3-[(5-chloropyridin-2-yl)oxy]phenyl}-N-pyridazin-3-yl-1-oxa-8-azaspiro[4.5]decane-8-carboxamide], the kinact/KI was 2910 M⁻¹ s⁻¹ at human FAAH and 3380 M⁻¹ s⁻¹ on rat FAAH.

As to `O=C(Nc1cccnn1)N1CCC2(CC1)CC(c1cccc(Oc3ccc(Br)cn3)c1)CO2` (racemic) [Example 5, (3RS)-3-{3-[(5-bromopyridin-2-yl)oxy]phenyl}-N-pyridazin-3-yl-1-oxa-8-azaspiro[4.5]decane-8-carboxamide], the kinact/KI is 2660 M⁻¹ s⁻¹ on human FAAH and 3620 M⁻¹ s⁻¹ at rat FAAH.

`O=C(Nc1cccnc1)N1CCC2(CC1)CC(c1cccc(Oc3ccc(Br)cn3)c1)CO2` (racemic) [Example 6, (3RS)-3-{3-[(5-bromopyridin-2-yl)oxy]phenyl}-N-pyridin-3-yl-1-oxa-8-azaspiro[4.5]decane-8-carboxamide]: the kinact/KI on human FAAH turned out to be 2320 M⁻¹ s⁻¹; at rat FAAH, 1750 M⁻¹ s⁻¹.

As to `Cc1noc(NC(=O)N2CCC3(CC2)CC(c2cccc(OC(F)(F)F)c2)CO3)c1C` (racemic) [Example 13, (3RS)-N-(3,4-dimethylisoxazol-5-yl)-3-[3-(trifluoromethoxy)phenyl]-1-oxa-8-azaspiro[4.5]decane-8-carboxamide], the figures for the kinact/KI at human FAAH and at rat FAAH were 1800 M⁻¹ s⁻¹ and 3110 M⁻¹ s⁻¹, respectively.

For the molecule `Cc1noc(NC(=O)N2CCC3(CC2)CC(c2cccc(Cl)c2)CO3)c1C` (racemic) [Example 14, (3RS)-3-(3-chlorophenyl)-N-(3,4-dimethylisoxazol-5-yl)-1-oxa-8-azaspiro[4.5]decane-8-carboxamide], the kinact/KI on human FAAH worked out at 2040 M⁻¹ s⁻¹; at rat FAAH, 2670 M⁻¹ s⁻¹.

Turning to `Cc1noc(NC(=O)N2CCC3(CC2)CC(c2ccc(Cl)c(Cl)c2)CO3)c1C` (racemic) [Example 15, (3RS)-3-(3,4-dichlorophenyl)-N-(3,4-dimethylisoxazol-5-yl)-1-oxa-8-azaspiro[4.5]decane-8-carboxamide], the kinact/KI came out at 2430 M⁻¹ s⁻¹ at human FAAH and 4360 M⁻¹ s⁻¹ at rat FAAH.

As for `Cc1noc(NC(=O)N2CCC3(CC2)CC(c2cc(F)cc(Cl)c2)CO3)c1C` (racemic) [Example 16, (3RS)-3-(3-chloro-5-fluorophenyl)-N-(3,4-dimethylisoxazol-5-yl)-1-oxa-8-azaspiro[4.5]decane-8-carboxamide], the figures for the kinact/KI at human FAAH and on rat FAAH were 1990 M⁻¹ s⁻¹ and 3590 M⁻¹ s⁻¹, respectively.

Take `Cc1noc(NC(=O)N2CCC3(CC2)CC(c2ccc(OCc4ccc(F)cc4)cc2)CO3)c1C` (racemic) [Example 17, (3RS)-N-(3,4-dimethylisoxazol-5-yl)-3-{4-[(4-fluorobenzyl)oxy]phenyl}-1-oxa-8-azaspiro[4.5]decane-8-carboxamide]: the kinact/KI at human FAAH is 6960 M⁻¹ s⁻¹; on rat FAAH, 6690 M⁻¹ s⁻¹.

`Cc1noc(NC(=O)N2CCC3(CC2)CC(c2ccc(OCc4ccccc4Cl)c(Cl)c2)CO3)c1C` (racemic) [Example 18, (3RS)-3-{3-chloro-4-[(2-chlorobenzyl)oxy]phenyl}-N-(3,4-dimethylisoxazol-5-yl)-1-oxa-8-azaspiro[4.5]decane-8-carboxamide]: the kinact/KI at human FAAH was 2290 M⁻¹ s⁻¹; at rat FAAH it was 2840 M⁻¹ s⁻¹.

Turning to `Cc1noc(NC(=O)N2CCC3(CC2)CC(c2ccc(OCc4ccc(F)cc4)c(Cl)c2)CO3)c1C` (racemic) [Example 19, (3RS)-3-{3-chloro-4-[(4-fluorobenzyl)oxy]phenyl}-N-(3,4-dimethylisoxazol-5-yl)-1-oxa-8-azaspiro[4.5]decane-8-carboxamide], the kinact/KI amounted to 6710 M⁻¹ s⁻¹ at human FAAH and 7120 M⁻¹ s⁻¹ at rat FAAH.

Regarding `Cc1noc(NC(=O)N2CCC3(CC2)CC(c2ccc(OCc4ccccc4)c(Cl)c2)CO3)c1C` (racemic) [Example 20, (3RS)-3-[4-(benzyloxy)-3-chlorophenyl]-N-(3,4-dimethylisoxazol-5-yl)-1-oxa-8-azaspiro[4.5]decane-8-carboxamide], the results for the kinact/KI at human FAAH and on rat FAAH were 3970 M⁻¹ s⁻¹ and 4390 M⁻¹ s⁻¹, respectively.

In the case of `Cc1noc(NC(=O)N2CCC3(CC2)CC(c2ccc(OCc4cccc(Cl)c4)c(Cl)c2)CO3)c1C` (racemic) [Example 21, (3RS)-3-{3-chloro-4-[(3-chlorobenzyl)oxy]phenyl}-N-(3,4-dimethylisoxazol-5-yl)-1-oxa-8-azaspiro[4.5]decane-8-carboxamide], the kinact/KI amounted to 3100 M⁻¹ s⁻¹ at human FAAH and 3550 M⁻¹ s⁻¹ on rat FAAH.

Turning to `Cc1noc(NC(=O)N2CCC3(CC2)CC(c2ccc(OCc4cccc(F)c4)cc2)CO3)c1C` (racemic) [Example 22, (3RS)-N-(3,4-dimethylisoxazol-5-yl)-3-{4-[(3-fluorobenzyl)oxy]phenyl}-1-oxa-8-azaspiro[4.5]decane-8-carboxamide], the kinact/KI was 6030 M⁻¹ s⁻¹ on human FAAH and 3630 M⁻¹ s⁻¹ on rat FAAH.

Regarding `Cc1noc(NC(=O)N2CCC3(CC2)CC(c2ccc(OCc4ccc(Cl)cc4)cc2)CO3)c1C` (racemic) [Example 23, (3RS)-3-{4-[(4-chlorobenzyl)oxy]phenyl}-N-(3,4-dimethylisoxazol-5-yl)-1-oxa-8-azaspiro[4.5]decane-8-carboxamide], the results for the kinact/KI on human FAAH and on rat FAAH were 6950 M⁻¹ s⁻¹ and 10900 M⁻¹ s⁻¹, respectively.

`Cc1noc(NC(=O)N2CCC3(CC2)CC(c2ccc4c(c2)OCO4)CO3)c1C` (racemic) [Example 24, (3RS)-3-(1,3-benzodioxol-5-yl)-N-(3,4-dimethylisoxazol-5-yl)-1-oxa-8-azaspiro[4.5]decane-8-carboxamide]: the kinact/KI at human FAAH was 788 M⁻¹ s⁻¹; on rat FAAH, 431 M⁻¹ s⁻¹.

`Cc1noc(NC(=O)N2CCC3(CC2)CC(c2ccc4ccccc4c2)CO3)c1C` (racemic) [Example 25, (3RS)-N-(3,4-dimethylisoxazol-5-yl)-3-(2-naphthyl)-1-oxa-8-azaspiro[4.5]decane-8-carboxamide]: the values for the kinact/KI on human FAAH and on rat FAAH were 2090 M⁻¹ s⁻¹ and 2240 M⁻¹ s⁻¹, respectively.

Regarding `Cc1noc(NC(=O)N2CCC3(CC2)CC(c2ccc(Cl)c(F)c2)CO3)c1C` (racemic) [Example 26, (3RS)-3-(4-chloro-3-fluorophenyl)-N-(3,4-dimethylisoxazol-5-yl)-1-oxa-8-azaspiro[4.5]decane-8-carboxamide], the kinact/KI on human FAAH came out at 2140 M⁻¹ s⁻¹; on rat FAAH, 2520 M⁻¹ s⁻¹.
